Source: patent US20240189268A1, “SESQUITERPENE DERIVATIVE OR PHARMACEUTICALLY ACCEPTABLE SALT THEREOF AND USE THEREOF” (MFC CO., LTD., priority 2021, published 2024)
“Also recorded” adds a separate entry of the source. Values belong to the molecule of their own block, whether it stands above or below them.

Legend:
aging mice [1] = assay: Muscle size (GC, TA, EDL) of aging mice fed compound; type: in vivo; conditions: 21-month-old aging mice, in feed for 3 months; vs Control group
Protocol: 21-month-old aging mice were fed with regular feed (Control), feed containing Cedrol (Reference), and feed containing Compound 1-2 (MFC-2) for 3 months for each group, and thereafter, an animal experiment was conducted to compare the sizes of the Gastrocnemius muscle (GC), Tibialis anterior (TA), and Extensor digitorum longus (EDL) muscles separated from the hind limbs of aging mice.

Myostatin = assay: qRT-PCR of EDL muscle tissue of aging mice: myostatin; type: in vivo; conditions: vs Control group, listed as MFC-2
Description: (§1) MuRF1 (muscle RING-finger protein 1) was a muscle-specific E3 ubiquitin ligase and a type of atrogene causing sarcopenia, and it was confirmed that the expression of Myostatin and MuRF1 was reduced in the EDL muscle tissue of the group fed with Compound MFC-2.

[2] = Animal blood analysis of aging mice (CK, LDH, AST, TG); type: in vivo
Protocol: For the Control group, Reference group, and MFC-2 group, an animal blood analysis experiment was conducted on aging mice. As a result, it was confirmed that the serum CK level of creatine kinase (CK), which was an enzyme contained in skeletal muscle, myocardium, smooth muscle, etc. to be released into the blood when the muscle was damaged, decreased in the MFC-2 group compared to other groups (FIG. 5A).

MuRF1 = assay: qRT-PCR of EDL muscle tissue of aging mice: MuRF1; type: in vivo
Description: as §1

NF-κB promoter = assay: pNF-κB luciferase assay (NF-κB promoter activity); type: cell-based
Protocol: NF-κB was a transcription factor binding to a promoter region of a myostatin gene, a muscle mass regulation target protein, and to determine whether NF-κB was involved in the regulation of myostatin expression of Compound MFC-2, after 12 hours of transfection with 1 μg of the pNF-κB vector, Compound 1-2 (MFC-2) was treated (3 μM) for 12 hours. Thereafter, the luciferase activity was measured by harvesting (FIG. 3H). For reference, pGL3 and pGL4.15 shown in FIG. 3 were a type of luciferase plasmid vector, and the vector itself without the gene inserted was used as Control (control group). The vector in which the promoter region of the NF-κB gene was inserted into the luciferase vector was expressed as pNF-κB.
After 12 hours of transfection with 1 μg of the pNF-κB vector, Compound 1-2 (MFC-2) was pretreated (3 μM) for 3 hours. Thereafter, 0.5 μg/ml of Doxorubicin was treated for 6 hours, harvested, and luciferase activity was measured (FIG. 3I).

promoter of MSTN = assay: pMSTN_luc luciferase assay (MSTN promoter activity); type: cell-based; conditions: for MSTN promoter activity (luciferase) after Doxorubicin: pretreated 3 hours (1-1: 1, 3, 10 μM; 1-2: 1, 3, 10, 30 μM), vs Doxorubicin alone
Protocol: After 12 hours of transfection with 1 μg of a pMSTN_luc vector (myostatin; new plasmid vector generated by inserting a promoter region of a MSTN gene into a plasmid vector (pGL4.15 vector) capable of luciferase experiment), Compound 1-1 (MFC-1) was pretreated (1, 3, and 10 μM) for 3 hours, respectively. Thereafter, luciferase activity was measured by harvesting after treatment with 0.5 μg/ml of an anticancer agent Doxorubicin for 6 hours. The results were illustrated in FIG. 1B.
(Meanwhile, the luciferase assay used in FIG. 1B was an assay of transfecting a luciferase vector into a cell, treating a drug, and then treating luciferin to measure the amount of light emitted by the activation of the promoter of the gene by the drug. This means that it is possible to determine whether the promoter was activated and that the gene may be regulated at the transcriptional level by the drug touching the promoter region.)
After 12 hours of transfection with 1 μg of the pMSTN_luc vector, Compound 1-2 (MFC-2) was pretreated (1, 3, 10, and 30 μM) for 3 hours, respectively. Thereafter, the luciferase activity was measured by harvesting after treatment with Doxorubicin 0.5 μg/ml for 6 hours. The results were illustrated in FIG. 1C.
Cedrol (Reference) and Compound 1-2 (MFC-2) were each treated (3 μM), respectively, and harvested 12 hours later to measure luciferase activity (FIG. 3J).

aging mice [3] = assay: Grip strength of aging mice; type: in vivo; conditions: for grip strength (muscle strength of forelimbs and hindlimbs): 24 to 25-month-old mice, once a week for 16 weeks, vs Control group
Protocol: In addition, the muscle strengths of the forelimbs and hindlimbs of 24 to 25-month-old mice were evaluated for the three groups using a grip strength measuring machine, and the evaluation was conducted once a week for 16 weeks.

[4] = aging mice blood, compared to other groups
[5] = then Doxorubicin 0.5 μg/ml 6 hours
[6] = Doxorubicin 0.5 μg/ml for 6 hours, alone

SMILES: COc1cc(C(=O)O[C@]2(C)CC[C@@]34C[C@@H]2C(C)(C)[C@@H]3CC[C@H]4C)ccc1OC(C)=O [Compound 1-2, (3R,3aS,6R,7R,8aS)-3,6,8,8-tetramethyloctahydro-1H-3a,7-methanoazulen-6-yl-4-acetoxy-3-methoxybenzoate]
muscle size (GC, TA, EDL) (aging mice [1]): increase in muscle size
myostatin mRNA expression in EDL muscle tissue (Myostatin): significantly decreased compared to the Control group; also recorded: reduced
LDH level ([2]; aging mice blood, compared to Control group): decrease in LDH level
AST level [2, 4]: decrease in the levels thereof
TG level [2, 4]: decrease in the levels thereof
serum CK level ([2]; aging mice, compared to other groups): decreased
MuRF1 mRNA expression in EDL muscle tissue (MuRF1): reduced
NF-κB promoter activity (luciferase) (NF-κB promoter; 3 μM for 12 hours, no Doxorubicin): reduces NF-κB promoter activity
NF-κB promoter activity (luciferase) after Doxorubicin (NF-κB promoter; pretreated 3 μM 3 hours, then Doxorubicin 0.5 μg/ml 6 hours, vs Doxorubicin alone): lower expression level than the group treated with Doxorubicin alone
pMSTN-luciferase activity (promoter of MSTN; 3 μM, harvested 12 hours later, compared with Cedrol): reduced pMSTN-luciferase activity more effectively than existing Cedrol (Reference)
MSTN promoter activity (luciferase) after Doxorubicin (promoter of MSTN; [5]): lower expression level than the group treated with Doxorubicin alone
inhibitory effect on MSTN promoter activity compared with Compound 1-1 (promoter of MSTN; pretreatment, then Doxorubicin 0.5 μg/ml 6 hours): greater inhibitory effect than Compound 1-1 (MFC-1)
grip strength (muscle strength of forelimbs and hindlimbs) (aging mice [3]; listed as MFC-2): gradually increased compared to the Control group
grip strength compared to Reference group (Cedrol) (aging mice [3]; aging mice, from week 15): increased compared to the Reference group from week 15 later

SMILES: C[C@@H]1CC[C@H]2C(C)(C)[C@H]3C[C@@]12CC[C@@]3(C)O [Cedrol, reference compound]
grip strength (muscle strength of forelimbs and hindlimbs) (aging mice [3]): gradually increased compared to the Control group

SMILES: COc1cc(C(=O)O[C@]2(C)CC[C@@]34C[C@@H]2C(C)(C)[C@@H]3CC[C@H]4C)ccc1O [Compound 1-1, (3R,3aS,6R,7R,8aS)-3,6,8,8-tetramethyloctahydro-1H-3a,7-metanoazulen-6-yl-4-hydroxy-3-methoxybenzoate]
MSTN promoter activity (luciferase) after Doxorubicin (promoter of MSTN; [5]): lower expression level than a group treated with Doxorubicin alone

NF-κB promoter activity (luciferase) (NF-κB promoter; [6]): increased
MSTN promoter activity (luciferase) (promoter of MSTN; [6]): rapidly increased
SMILES: COc1cccc2c1C(=O)c1c(O)c3c(c(O)c1C2=O)C[C@@](O)(C(=O)CO)C[C@@H]3O[C@H]1C[C@H](N)[C@H](O)[C@H](C)O1 [Doxorubicin, reference compound]
